From article PMC6669322, “Small Molecule Binding to Alzheimer Risk Factor CD33 Promotes Aβ Phagocytosis” (iScience, 2019)
“And” between values parts separate entries of the source, which are not always exact repeats. Identical values can stand only once.

Columns and labels:
CD33^C36S = molecular target: T1, CD33^C36S (Homo sapiens, UniProt P20138, C36S); assay: surface plasmon resonance (SPR), CD33^C36S V-set domain; type: binding; conditions: P22 as analyte, captured CD33^C36S; 1:1 steady state model
T1 construct: DNA encoding D18 to H143 of human CD33; octa-histidine tag with TEV protease cleavage site (N); made in house
T1 sequence (P20138 18-143 C36S): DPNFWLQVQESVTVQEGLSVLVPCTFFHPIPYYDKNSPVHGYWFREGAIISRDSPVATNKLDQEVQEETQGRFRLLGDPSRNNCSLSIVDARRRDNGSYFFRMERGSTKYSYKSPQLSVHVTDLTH
Procedure: We next performed surface plasmon resonance (SPR) measurements on P22 binding to CD33 wild-type, and selected mutants, to obtain detailed kinetic data (see Transparent Methods). The CD33 V-set domain has a free cysteine residue (C36), which caused anomalous results in some of our SPR experiments due to disulfide-linked oligomers forming in solution.
Figure 3 P22 Binding to CD33 Wild-Type and Mutants (A) An example of affinity analysis for 1–243 μM (3-fold dilutions) of P22 binding to immobilized CD33^C36S. Data obtained in duplicate using single-cycle analysis and fit to a steady-state binding model to determine the equilibrium binding constant. (B) An example of affinity analysis of P22 binding to immobilized CD33 wild-type (WT) as per example in (A). (C) Sensorgram data for 0.01–9 μM (3-fold dilutions) of CD33^C36S binding to immobilized P22. Data obtained in triplicate using single concentration cycles and fit to a 1:1 binding model for kinetic analysis. (D) Sensorgram data for 0.03–9 μM (3-fold dilutions) CD33 WT binding to immobilized P22. Data obtained in triplicate using single concentration cycles and fit to a bivalent analyte model for kinetic analysis. Measurements in triplicate showing mean ± SD. […] Data presented are representative of three independent experiments performed in quadruplicate for each compound. […]

CD33 R119A = CD33 R119A (Homo sapiens, UniProt P20138, R119A); assay: SNAP-tag homogeneous time-resolved fluorescence binding assay, CD33 R119A; set-up: human CD33 ORF (NM_001772.3), lacking its signal peptide; expressed in transfected cells; host or cells: HEK293T, transient, pT8-SNAP vector; conditions: binding affinity, R119A vs WT
Chain of CD33 R119A (P20138 18-364 R119A): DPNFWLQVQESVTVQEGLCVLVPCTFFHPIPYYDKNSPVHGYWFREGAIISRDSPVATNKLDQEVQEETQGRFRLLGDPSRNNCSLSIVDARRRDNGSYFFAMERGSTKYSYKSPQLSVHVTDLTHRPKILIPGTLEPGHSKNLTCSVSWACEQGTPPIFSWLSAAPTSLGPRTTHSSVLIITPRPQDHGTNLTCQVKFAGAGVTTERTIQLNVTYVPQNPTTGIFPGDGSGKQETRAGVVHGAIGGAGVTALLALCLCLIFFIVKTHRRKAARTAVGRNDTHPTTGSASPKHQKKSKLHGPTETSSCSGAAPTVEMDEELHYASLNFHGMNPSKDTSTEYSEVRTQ
Procedure: Figure 3 P22 Binding to CD33 Wild-Type and Mutants (A) An example of affinity analysis for 1–243 μM (3-fold dilutions) of P22 binding to immobilized CD33^C36S. Data obtained in duplicate using single-cycle analysis and fit to a steady-state binding model to determine the equilibrium binding constant. (B) An example of affinity analysis of P22 binding to immobilized CD33 wild-type (WT) as per example in (A). (C) Sensorgram data for 0.01–9 μM (3-fold dilutions) of CD33^C36S binding to immobilized P22. Data obtained in triplicate using single concentration cycles and fit to a 1:1 binding model for kinetic analysis. […]
We then used our structural data to design mutations of key residues interacting with P22 to assess which interactions were the most important for binding affinity. The residues were mutated into alanine, and the effect of these mutations on P22 binding affinity was assessed using a SNAP-tag homogeneous time-resolved fluorescence binding assay (see Transparent Methods and Figures 3E–3G). […]
HEK293T cells were cultured in DMEM (ThermoFisher Scientific # 11965092) containing 10% FBS (Hyclone # SH30070.03) and 1% Penicillin-Streptomycin (ThermoFisher Scientific # 15140122) and transfected using Fugene HD (Promega # E2312) in 10 cm plates. […] The cells were counted, centrifuged and resuspended in PBS at a concentration of 1,000 cells/μL and 10 μL were plated into each well. […]

Cc1cc(C(=O)NC[C@@H](O)[C@@H](O)[C@@H]2O[C@@](OC[C@H]3O[C@@H](O[C@H]4[C@H](O)[C@@H](O)[C@H](OCCN)O[C@@H]4CO)[C@H](O)[C@@H](O)[C@H]3O)(C(=O)O)C[C@H](O)[C@H]2NC(=O)Cn2cc(C3CCCCC3)nn2)cc(C)c1O [P22, β-D-Glucopyranoside, 2-aminoethyl O-[N-[2-(4-cyclohexyl-1H-1,2,3-triazol-1-yl)acetyl]-9-deoxy-9-[(4-hydroxy-3,5-dimethylbenzoyl)amino]-α-neuraminosyl] (2→6)-O-β-D-galactopyranosyl-(1→4)-]
Kd (CD33^C36S): 95 µM and 95.2 µM | Fold-decrease compared to WT (CD33 R119A): > 30 fold
